The source of these data is ChEMBL document CHEMBL5150046, “Discovery of a Series of 5-Amide-1H-pyrazole-3-carboxyl Derivatives as Potent P2Y14R Antagonists with Anti-Inflammatory Characters” (J Med Chem, 2022).

For series [1], the target named is T1, P2Y purinoceptor 14 (Homo sapiens) (UniProt Q15391).
T1 sequence (whole entry): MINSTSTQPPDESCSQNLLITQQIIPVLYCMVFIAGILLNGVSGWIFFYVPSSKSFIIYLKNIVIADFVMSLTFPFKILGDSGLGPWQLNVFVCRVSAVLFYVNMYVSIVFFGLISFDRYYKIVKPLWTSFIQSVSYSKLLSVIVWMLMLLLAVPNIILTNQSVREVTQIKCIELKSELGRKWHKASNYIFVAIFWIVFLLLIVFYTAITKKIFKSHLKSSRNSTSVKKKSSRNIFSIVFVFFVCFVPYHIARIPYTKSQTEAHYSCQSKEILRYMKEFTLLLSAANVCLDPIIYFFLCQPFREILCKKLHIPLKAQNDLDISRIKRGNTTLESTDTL

Another series addresses T2, P2Y purinoceptor 13 (Homo sapiens, UniProt Q9BPV8).
T2 sequence (Q9BPV8 whole entry): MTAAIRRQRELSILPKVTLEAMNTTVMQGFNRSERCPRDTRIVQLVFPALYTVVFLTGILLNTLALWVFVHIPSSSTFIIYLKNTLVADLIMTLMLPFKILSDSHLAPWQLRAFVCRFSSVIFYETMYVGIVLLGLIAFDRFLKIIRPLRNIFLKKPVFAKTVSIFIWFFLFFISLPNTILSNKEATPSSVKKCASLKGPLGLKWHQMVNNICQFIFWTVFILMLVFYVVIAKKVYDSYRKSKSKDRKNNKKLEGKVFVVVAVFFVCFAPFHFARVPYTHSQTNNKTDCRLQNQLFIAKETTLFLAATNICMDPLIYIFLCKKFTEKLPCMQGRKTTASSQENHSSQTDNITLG
Put plainly: Antagonist activity at human P2Y13R expressed in HEK293 cells assessed as inhibition of 2MeSADP-induced cAMP production preincubated for 0.5 hrs followed by 2MeSADP stimulation by cAMP-glo assay. Format: functional, cell-based.

In series [2] the test system is Mus musculus. Briefly: Antiinflammatory activity in ICR mouse model of LPS-induced acute peritonitis assessed as reduction in IL-1beta level in peritoneal fluid at 5 mg/kg, ip pretreated for 1 hr followed by LPS stimulation and measured after 6 hrs by qRT-PCR analysis. In kind it is functional, organism-based. To be noted: time 7.0 hrs.
For series [3], the system named is Mus musculus. Briefly: Antiinflammatory activity in ICR mouse model of LPS-induced acute peritonitis assessed as reduction in IL-6 level in peritoneal fluid at 5 mg/kg, ip pretreated for 1 hr followed by LPS stimulation and measured after 6 hrs by qRT-PCR analysis. Format: functional, organism-based. To be noted: time 7.0 hrs.
Series [4] concerns Mus musculus. Put plainly: Antiinflammatory activity in ICR mouse model of LPS-induced acute peritonitis assessed as reduction in TNF-alpha level in peritoneal fluid at 5 mg/kg, ip pretreated for 1 hr followed by LPS stimulation and measured after 6 hrs by qRT-PCR analysis. Format: functional, organism-based. The note with it: time 7.0 hrs.
In the next series the target is T3, P2Y purinoceptor 14 (Homo sapiens, UniProt Q15391).
T3 sequence (Q15391 whole entry): T1 sequence (whole entry)
Put plainly: Antagonist activity at P2Y14R (unknown origin) expressed in HEK293 cells assessed as inhibition of forskolin-stimulated cAMP accumulation incubated in presence of IBMX by cAMP-glo assay. In kind it is functional, cell-based.

Series [5] is described as follows: Aqueous solubility of the compound in double distilled water at pH 7 incubated for 24 hrs by UV-3000 absorption spectrometry analysis. Format: physicochemical. To be noted: double distilled water, pH 7.
Series [6] can be described thus: Aqueous solubility of the compound in simulated gastric fluid without pepsin at pH 1.2 incubated for 24 hrs by UV-3000 absorption spectrometry analysis. Format: physicochemical. To be noted: simulated gi fluid, pH 1.2, 24 h.
Series [7] is described as follows: Aqueous solubility of the compound in simulated intestinal fluid without trypsin at pH 6.8 incubated for 24 hrs by UV-3000 absorption spectrometry analysis. In kind it is physicochemical. The note with it: simulated gi fluid, pH 6.8, 24 h.
Series [8] in a line: Aqueous solubility of the compound in PBS at pH 7.4 incubated for 24 hrs by UV-3000 absorption spectrometry analysis. Format: physicochemical. The note with it: PBS, pH 7.4.
Where [9] appears, read: HEK293, filed as antagonist, dose 100.0 nM.

Structures are written as SMILES. ≈ marks a conversion by molar mass, not a printed value. Calls of active or inactive are those of the source. The rule behind the calls is not given here.

Compound `Cc1ccc(C(=O)Nc2cc(C(=O)O)nn2Cc2ccc(F)cc2)s1` had an inhibition in series [1] (setting [9]) of 77.9%. Regarding `O=C(O)c1cc(NC(=O)c2ccccc2F)n(Cc2ccc(F)cc2)n1`, in [1] (HEK293, dose 100.0 nM), the inhibition worked out at 20.1%. In the case of `CCCSc1nc(N[C@@H]2C[C@H]2c2ccc(F)c(F)c2)c2nnn([C@@H]3C[C@H](OCCO)[C@@H](O)[C@H]3O)c2n1` [TICAGRELOR], the concentration for half-maximal inhibition (IC50) on P2Y purinoceptor 13 amounted to 1400 nM. In the case of `C[C@@H]1C[C@H]2[C@@H]3CCC4=CC(=O)C=C[C@]4(C)[C@@]3(F)[C@@H](O)C[C@]2(C)[C@@]1(O)C(=O)CO`, the outcome in the series with Mus musculus [2], in the series on Mus musculus [3] and in the series on Mus musculus [4] was Active. `Cc1ccc(CCC(=O)Nc2cc(C(=O)O)nn2Cc2ccc(F)cc2)cc1` returned an inhibition in series [1] (HEK293, dose 100.0 nM) of 14.4%. In the case of `N#Cc1ccc(C(=O)Nc2cc(C(=O)O)nn2Cc2ccc(F)cc2)cc1`, the inhibition in series [1] (HEK293, dose 100.0 nM) came out at 22.4%. Consider `Cc1ccc(C(=O)Nc2cc(C(=O)O)nn2Cc2ccc(F)cc2)o1`, for which, in [1] (setting [9]), the inhibition came out at 43.6%.

Compound `O=C(Nc1cc(C(=O)O)nn1Cc1ccc(F)cc1)c1cccc(F)c1` gave an inhibition in series [1] (HEK293, dose 100.0 nM) of 25.2%. `Cc1ccc(C(=O)Nc2cc(C(=O)O)nn2Cc2ccc(F)cc2)cn1` registered an inhibition in [1] (setting [9]) of 53.7%. In [1] (setting [9]), `Cc1ccc(C(=O)Nc2cc(CC(=O)O)nn2Cc2ccc(F)cc2)cc1` gave an inhibition of 98.3%. The half-maximal inhibitory concentration (IC50) on P2Y purinoceptor 14 turned out to be 14.3 nM. Turning to `O=C(Nc1cc(C(=O)O)nn1Cc1ccc(F)cc1)c1ccccc1`, in series [1] (setting [9]), the inhibition was 77.4%. With `Cc1ccc(C(=O)Nc2cc(C(=O)O)cc(-c3ccoc3)c2)cc1`, the solubility at 24 h was 77.6 µg/mL (≈ 241 µM) in [5] and 878 µg/mL (≈ 2730 µM) in [8]. Also, the solubility in series [6] is 69.1 µg/mL (≈ 215 µM); in [7], 471.1 µg/mL (≈ 1470 µM). In the case of `Cc1ccc(C(=O)Nc2cc(C(=O)O)nn2Cc2ccccc2F)cc1`, the inhibition in [1] (setting [9]) turned out to be 58.5%. For the same compound, the 50% inhibitory concentration (IC50) on P2Y purinoceptor 14 is 111 nM. In [1] (HEK293, dose 100.0 nM), `Cc1ccccc1C(=O)Nc1cc(C(=O)O)nn1Cc1ccc(F)cc1` registered an inhibition of 28.5%. In [1] (setting [9]), `CCOC(=O)c1cc(NC(=O)c2ccc(C)cc2)n(Cc2ccc(F)cc2)n1` came in with an inhibition of 68.3%. Take `O=C(O)c1cc(NC(=O)c2ccco2)n(Cc2ccc(F)cc2)n1`: the inhibition in [1] (setting [9]) turned out to be 76%.
